One compound from US7655800B2, “Crystalline 1H-imidazo[4,5-b]pyridin-5-amine, 7-[5-[(cyclohexylmethylamino)-methyl]-1H-indol-2-yl]-2-methyl, sulfate (1:1), trihydrate and its pharmaceutical uses” (Eisai R & D Management Co., Ltd., priority 2005, dated 2010) can be followed below.

Where a name gives a salt, the structure may show the parent alone.

Holding throughout (format): physicochemical
Series [1] can be described thus: Solubility in water of amorphous versus crystalline E6070. The note with it: in words.
The nature of series [2]: Physical stability of crystalline E6070 under stressed storage (XRD, TG-DTA). How it is done:
Crystalline E6070 was placed on the sample platform of an X-ray powder diffractometer (RINT-2000, Rigaku, Japan) and analyzed under the conditions shown in Table 3.
Thermal Analyses: Using a Rigaku Thermoflex TAS20 TG8101D (Rigaku, Tokyo, Japan) therogravimetric-differential thermal analyses (TG-DTA) were performed under the measurement conditions in Table 9. The temperature axis and the cell constant were calibrated with indium. The solid sample (1-5 mg) was accurately weighed into an open aluminum pan and then heated.
The physical stability of crystalline E6070 was evaluated under the following two conditions: 60° C. for a month and 40° C./75% RH (open) for a month.

Series [3] is described as follows: Hygroscopicity measurements (controlled-atmosphere microbalance, adsorption/desorption isotherm). The note with it: for hygroscopicity: general statement, in words. How it is done: Hygroscopicity Measurements: Samples were exposed to various relative humidity (RH) conditions at 25° C. using an automated controlled-atmosphere microbalance, MB-300W (VTI Corporation, FL, USA). In this system, a sample was suspended in an isothermal chamber at 25° C., and the RH was regulated from 5% to 95% by adjusting the relative flow rates of dry (0% RH) and moist (100% RH) nitrogen. The weight of the sample was measured every 2 min with the microbalance. The weight stability criterion employed for the equilibrium was that the maximum weight change for each measurement was less than 0.2% (w/w).

Where [4] appears, read: 40° C./75% RH (open) for a month.

Consider `Cc1nc2nc(N)cc(-c3cc4cc(CN(C)C5CCCCC5)ccc4[nH]3)c2[nH]1` [crystalline E6070, 1H-imidazo[4,5-b]pyridin-5-amine, 7-[5-[(cyclohexylmethylamino)-methyl]-1H-indol-2-yl]-2-methyl, sulfate (1:1), trihydrate], for which the solubility in water entry in series [1] is “much less soluble in water”. Further, the “TG-DTA thermogram after storage compared with initial” value in series [2] (setting [4]) and in series [2] (60° C. for a month) was “same TG-DTA thermogram as the initial” throughout. The “change in XRD pattern after storage” value in series [2] (setting [4]) and in series [2] (60° C. for a month) was “no change” throughout. In series [2] (both stressed conditions, one month), the “physical stability in the solid state (conclusion)” value was “physically stable in the solid state”. The “moisture uptake or loss on exposure to controlled humidities” value in series [3] (from 0% to 93% RH at 25° C.) was “not found to take up or lose any moisture”. Besides, the hygroscopicity entry in series [3] (listed as Crystalline E6070, trihydrate) is given as “very low hygroscopicity”; in series [3] (trihydrate) it was “non-hygroscopic”.
